These are literature values, as cited in patent US20020172713A1, “Micron sized bicarbonate particles and slurrys containing the same” (Church & Dwight, Co., Inc., priority 2001, published 2002).

Structures are written as SMILES. Read-outs that look alike come from different tables or passages of the source.

The conditions of the data set: prior art particles, dilution of about 70% by weight slurry with additional water.

Regarding `O=C([O-])O.[Na+]` [sodium bicarbonate], the “alkali metal bicarbonate particles dissolved in dilution” value by setting is: (10° C.) 7%; (22° C.) 8.5%.
